Results: PMC8999638, “Identification of Entry Inhibitors against Delta and Omicron Variants of SARS-CoV-2” (International Journal of Molecular Sciences, 2022)

Columns and labels:
Experiment in all cases: microbe, parasite or virus in culture
Type in all cases: cell-based, SARS-CoV-2
[1] = tested on: pseudovirus carrying spike protein of the delta variant; details: read-out: EC50 (nM) (Delta)
[2] = tested on: pseudoviruses carrying spike proteins of different variants; details: Severe acute respiratory syndrome coronavirus 2, read-out: EC50 values against different variants (span)
[3] = tested on: pseudovirus carrying spike protein of the omicron variant; details: read-out: EC50 (nM) (Omicron)
[4] = tested on: pseudovirus carrying spike protein of the beta variant; details: read-out: EC50 (nM) (Beta)
[5] = tested on: pseudovirus carrying spike protein of the alpha variant; details: read-out: EC50 (nM) (Alpha)

SMILES | EC50 [1] | EC50 [2] | EC50 [3] | EC50 [4] | EC50 [5]
C[C@@H]1CCO[C@H]2Cn3cc(C(=O)NCc4ccc(F)cc4F)c(=O)c(O)c3C(=O)N12 [Dolutegravir sodium] | 3 nM | 10.2 to 22.9 nM | 2.6 nM | 10.2 nM | 15.8 nM
Cc1cc(C#N)cc(C)c1Oc1nc(Nc2ccc(C#N)cc2)nc(N)c1Br [Etravirine] | 2.9 nM | 4.5 to 5.8 nM | 3 nM | 4.5 nM | 4.9 nM
